In ChEMBL document CHEMBL5465560, “Selectivity Literature for EUbOPEN Chemogenomic Library” (2024):
Each block holds one molecule with its values, some of them ahead of it.

Legend:
[1] = target: T1, Histone-lysine N-methyltransferase SETD7 (Homo sapiens) (UniProt Q8WTS6); assay: Selectivity interaction (Methyltransferase screen (radiometric assays, panel of 8 PRMTs, 21 protein lysine methyltransferases, 3 DNA methyltransferases, and one RNA methyltransferase)) EUB0000272b SETD7
T1 sequence (whole entry): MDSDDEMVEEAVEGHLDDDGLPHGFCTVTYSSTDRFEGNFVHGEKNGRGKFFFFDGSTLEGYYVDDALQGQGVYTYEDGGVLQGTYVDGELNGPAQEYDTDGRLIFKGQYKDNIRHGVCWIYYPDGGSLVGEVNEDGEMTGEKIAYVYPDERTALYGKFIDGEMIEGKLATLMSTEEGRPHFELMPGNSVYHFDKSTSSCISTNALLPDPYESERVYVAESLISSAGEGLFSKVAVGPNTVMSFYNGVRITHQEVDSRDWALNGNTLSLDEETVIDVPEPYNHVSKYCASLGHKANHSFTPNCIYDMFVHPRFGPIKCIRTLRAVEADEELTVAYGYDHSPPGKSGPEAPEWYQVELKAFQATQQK

[2] = target: T2, Serine/threonine-protein kinase TNNI3K (Homo sapiens) (UniProt Q59H18); assay: Selectivity interaction (KinomeScan (DiscoverX)) EUB0000655a TNNI3K; conditions: at 10 µM
T2 sequence (whole entry): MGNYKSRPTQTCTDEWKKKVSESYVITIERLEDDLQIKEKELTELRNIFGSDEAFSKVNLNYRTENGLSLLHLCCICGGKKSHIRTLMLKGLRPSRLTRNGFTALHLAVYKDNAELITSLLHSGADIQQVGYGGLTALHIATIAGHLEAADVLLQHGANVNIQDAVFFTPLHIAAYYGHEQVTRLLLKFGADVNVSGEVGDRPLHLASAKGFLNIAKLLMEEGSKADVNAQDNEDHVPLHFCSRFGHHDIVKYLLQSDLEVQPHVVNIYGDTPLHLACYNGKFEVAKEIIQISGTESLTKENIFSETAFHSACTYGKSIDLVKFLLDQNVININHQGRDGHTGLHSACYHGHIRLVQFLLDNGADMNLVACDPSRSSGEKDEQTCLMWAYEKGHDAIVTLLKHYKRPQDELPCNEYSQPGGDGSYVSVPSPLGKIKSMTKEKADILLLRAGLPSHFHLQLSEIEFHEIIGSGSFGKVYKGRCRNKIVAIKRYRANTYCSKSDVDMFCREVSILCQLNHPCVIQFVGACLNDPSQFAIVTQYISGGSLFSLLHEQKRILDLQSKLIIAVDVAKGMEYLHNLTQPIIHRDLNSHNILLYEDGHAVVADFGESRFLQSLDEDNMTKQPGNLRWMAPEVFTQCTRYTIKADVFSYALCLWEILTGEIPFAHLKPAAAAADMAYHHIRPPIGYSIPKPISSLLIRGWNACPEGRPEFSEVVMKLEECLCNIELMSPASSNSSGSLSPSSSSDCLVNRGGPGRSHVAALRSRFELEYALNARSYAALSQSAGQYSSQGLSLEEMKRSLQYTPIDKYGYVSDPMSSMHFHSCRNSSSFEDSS

[3] = target: T3, Protein kinase C beta type (Homo sapiens, UniProt P05771); assay: Selectivity interaction (Millipore kinase profiler) EUB0000124b PRKCB; conditions: at 10 µM
[4] = target: T4, MAP kinase-activated protein kinase 5 (Homo sapiens) (UniProt Q8IW41); assay: Selectivity interaction (KinomeScan (DiscoverX)) EUB0000618a MAPKAPK5; conditions: at 10 µM
T4 sequence (whole entry): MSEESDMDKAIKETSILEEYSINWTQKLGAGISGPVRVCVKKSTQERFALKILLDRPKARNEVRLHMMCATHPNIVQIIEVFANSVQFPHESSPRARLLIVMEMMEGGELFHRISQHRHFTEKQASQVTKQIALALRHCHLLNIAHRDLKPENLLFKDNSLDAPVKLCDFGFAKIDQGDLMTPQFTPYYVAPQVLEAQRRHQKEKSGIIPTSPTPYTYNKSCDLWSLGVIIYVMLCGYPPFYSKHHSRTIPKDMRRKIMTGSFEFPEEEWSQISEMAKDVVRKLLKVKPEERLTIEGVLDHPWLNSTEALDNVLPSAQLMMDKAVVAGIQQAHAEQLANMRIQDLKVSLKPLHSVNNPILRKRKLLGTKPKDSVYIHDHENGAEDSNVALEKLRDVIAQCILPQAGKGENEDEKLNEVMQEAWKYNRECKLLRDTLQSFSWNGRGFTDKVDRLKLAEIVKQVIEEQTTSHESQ

[5] = target: Mast/stem cell growth factor receptor Kit (Homo sapiens, UniProt P10721); assay: Selectivity interaction (Kinase panel (Invitrogen)) EUB0000639a KIT; conditions: at 200 nM
[6] = target: T5, Dual serine/threonine and tyrosine protein kinase (Homo sapiens) (UniProt Q6XUX3); assay: Selectivity interaction (KinomeScan (DiscoverX)) EUB0001550a DSTYK; conditions: at 1 µM
T5 sequence (whole entry): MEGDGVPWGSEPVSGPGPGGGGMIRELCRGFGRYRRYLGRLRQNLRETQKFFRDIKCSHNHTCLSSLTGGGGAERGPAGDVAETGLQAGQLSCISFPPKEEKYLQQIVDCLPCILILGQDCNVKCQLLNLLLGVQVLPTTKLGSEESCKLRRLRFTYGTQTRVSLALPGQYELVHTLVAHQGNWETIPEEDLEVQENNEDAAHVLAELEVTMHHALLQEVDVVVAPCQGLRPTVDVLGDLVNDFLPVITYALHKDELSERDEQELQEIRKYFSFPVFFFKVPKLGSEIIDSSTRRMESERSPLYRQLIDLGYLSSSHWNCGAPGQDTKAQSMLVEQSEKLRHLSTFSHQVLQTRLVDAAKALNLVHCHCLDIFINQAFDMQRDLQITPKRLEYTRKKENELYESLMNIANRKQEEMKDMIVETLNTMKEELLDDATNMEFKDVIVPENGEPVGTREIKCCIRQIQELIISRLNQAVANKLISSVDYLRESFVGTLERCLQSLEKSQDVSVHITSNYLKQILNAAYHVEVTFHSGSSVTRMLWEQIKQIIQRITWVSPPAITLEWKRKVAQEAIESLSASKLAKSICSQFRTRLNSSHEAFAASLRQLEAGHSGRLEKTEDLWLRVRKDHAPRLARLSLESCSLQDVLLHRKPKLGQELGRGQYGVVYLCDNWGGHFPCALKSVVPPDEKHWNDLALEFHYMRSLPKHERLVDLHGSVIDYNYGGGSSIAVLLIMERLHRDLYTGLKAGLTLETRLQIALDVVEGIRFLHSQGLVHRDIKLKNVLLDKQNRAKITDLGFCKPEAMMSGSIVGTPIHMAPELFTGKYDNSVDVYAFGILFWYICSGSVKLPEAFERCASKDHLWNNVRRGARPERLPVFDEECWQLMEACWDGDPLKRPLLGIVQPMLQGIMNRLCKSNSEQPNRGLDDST

[7] = target: T3, Protein kinase C beta type; assay: Selectivity interaction (Kinase panel (Z-LYTE Assay)) EUB0001632a PRKCB; conditions: at 10 µM

T3 sequence (P05771 2-671 limits assumed): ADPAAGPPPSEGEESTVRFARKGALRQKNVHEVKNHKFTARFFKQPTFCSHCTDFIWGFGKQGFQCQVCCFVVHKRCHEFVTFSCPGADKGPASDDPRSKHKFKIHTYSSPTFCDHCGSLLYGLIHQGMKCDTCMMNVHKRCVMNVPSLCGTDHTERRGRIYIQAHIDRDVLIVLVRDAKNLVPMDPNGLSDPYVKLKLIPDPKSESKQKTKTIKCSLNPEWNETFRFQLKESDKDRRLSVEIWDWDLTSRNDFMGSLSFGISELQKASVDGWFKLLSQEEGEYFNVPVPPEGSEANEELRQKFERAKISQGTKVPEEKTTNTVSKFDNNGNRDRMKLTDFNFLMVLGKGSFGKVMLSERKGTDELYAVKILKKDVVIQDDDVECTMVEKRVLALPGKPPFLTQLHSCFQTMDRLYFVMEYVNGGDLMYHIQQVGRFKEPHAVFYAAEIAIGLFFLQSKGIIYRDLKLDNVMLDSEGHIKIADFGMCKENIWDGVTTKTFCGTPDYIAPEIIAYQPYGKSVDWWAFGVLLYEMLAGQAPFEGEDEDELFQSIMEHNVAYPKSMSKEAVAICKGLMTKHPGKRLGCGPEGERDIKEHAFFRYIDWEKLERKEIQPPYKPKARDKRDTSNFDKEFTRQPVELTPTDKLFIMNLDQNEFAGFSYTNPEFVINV
Mast/stem cell growth factor receptor Kit, sequence (P10721 whole entry): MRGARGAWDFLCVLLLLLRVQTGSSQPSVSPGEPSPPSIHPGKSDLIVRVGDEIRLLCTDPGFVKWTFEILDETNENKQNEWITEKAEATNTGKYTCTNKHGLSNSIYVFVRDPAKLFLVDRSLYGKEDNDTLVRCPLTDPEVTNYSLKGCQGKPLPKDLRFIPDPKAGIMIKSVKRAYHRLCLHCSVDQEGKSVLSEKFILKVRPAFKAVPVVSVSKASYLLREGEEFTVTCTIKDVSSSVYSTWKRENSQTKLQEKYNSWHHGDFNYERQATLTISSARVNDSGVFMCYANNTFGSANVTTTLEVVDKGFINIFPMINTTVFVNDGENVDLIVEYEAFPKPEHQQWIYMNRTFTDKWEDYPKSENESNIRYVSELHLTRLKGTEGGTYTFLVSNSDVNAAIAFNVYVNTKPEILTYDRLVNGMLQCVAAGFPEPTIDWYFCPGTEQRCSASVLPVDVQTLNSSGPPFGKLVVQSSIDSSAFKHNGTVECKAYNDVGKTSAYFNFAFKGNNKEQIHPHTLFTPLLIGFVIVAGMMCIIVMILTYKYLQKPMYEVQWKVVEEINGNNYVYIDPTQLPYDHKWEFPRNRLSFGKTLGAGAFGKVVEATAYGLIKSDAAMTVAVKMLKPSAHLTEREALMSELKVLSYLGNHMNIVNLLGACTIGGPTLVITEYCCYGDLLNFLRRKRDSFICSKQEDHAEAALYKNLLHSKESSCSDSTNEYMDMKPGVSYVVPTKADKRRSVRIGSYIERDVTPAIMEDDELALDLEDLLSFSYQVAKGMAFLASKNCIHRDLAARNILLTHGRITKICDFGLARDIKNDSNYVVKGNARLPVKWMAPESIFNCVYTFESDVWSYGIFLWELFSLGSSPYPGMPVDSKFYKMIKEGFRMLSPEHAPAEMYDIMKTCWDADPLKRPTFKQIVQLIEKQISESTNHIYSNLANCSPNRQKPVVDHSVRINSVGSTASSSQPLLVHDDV

- % of activity ([1]; at 1 µM): 101%
- % of activity ([1]; at 10 µM): 99%
SMILES: Cc1cc(C)cc([C@H]2c3cc(C)ccc3NC(=O)CN2C(=O)c2ccc(Br)s2)c1

- % of control [3]: 108%
SMILES: CC(=O)Nc1cccc(-n2c(=O)n(C3CC3)c(=O)c3c(Nc4ccc(I)cc4F)n(C)c(=O)c(C)c32)c1

- % of inhibition [5]: 1.04%
SMILES: CC[C@@H]1[C@H](F)C(=O)N[C@@H]1COc1nccc2cc(C(N)=O)c(OC)cc12 [ZIMLOVISERTIB]

The remaining lines, values behind:

SMILES: CN(C)CCOc1ccc(-c2nc(-c3ccncc3)c(-c3ccc4c(c3)CC/C4=N\O)[nH]2)cc1
- % of control [2]: 76%

SMILES: O[C@H]1CC[C@H](Nc2ncc3nc(Nc4c(F)cc(F)cc4F)n([C@H]4CCOC4)c3n2)CC1
- % of control [4]: 100%

SMILES: CN(C)CC#Cc1ccc2[nH]c3c(c2c1)-c1nc(N)ncc1CCC3
- % of control [6]: 5.2%

SMILES: Cn1cc(-n2cnc3c(NCc4nc5cc(Cl)c(Cl)cc5[nH]4)nc(N4CCOCC4)nc32)cn1
- % of control [7]: 45.9%
